Measured values reported in the NIST ThermoML archive (doi:10.1016/j.tca.2012.01.007).

Assay: wn = mass fraction of the nth substance listed
Conditions: 101 kPa, Liquid, Vibrating tube method

OCCNCCO [diethanolamine] + O
Conditions | mass density [kg/m3]
283.14 K, w1 = 1 | 1103.88
283.15 K, w1 = 0.1007 | 1011.98
283.15 K, w1 = 0.2002 | 1024.98
283.15 K, w1 = 0.2997 | 1038.45
283.15 K, w1 = 0.3999 | 1052.36
283.15 K, w1 = 0.5003 | 1065.24
283.15 K, w1 = 0.6024 | 1077.85
283.15 K, w1 = 0.6999 | 1088.2
283.15 K, w1 = 0.8004 | 1096.55
283.15 K, w1 = 0.8534 | 1099.73
283.15 K, w1 = 0.8995 | 1101.58
283.16 K, w1 = 0.9316 | 1102.57
283.16 K, w1 = 0.9591 | 1103.24
293.14 K, w1 = 0.8995 | 1095.4
293.15 K, w1 = 0.1007 | 1010.01
293.15 K, w1 = 0.2002 | 1022.35
293.15 K, w1 = 0.2997 | 1035.07
293.15 K, w1 = 0.3999 | 1048.19
293.15 K, w1 = 0.5003 | 1060.32
293.15 K, w1 = 0.6024 | 1072.33
293.15 K, w1 = 0.6999 | 1082.23
293.15 K, w1 = 0.8004 | 1090.42
293.15 K, w1 = 0.8534 | 1093.59
293.15 K, w1 = 0.9316 | 1096.37
293.15 K, w1 = 0.9591 | 1096.98
293.15 K, w1 = 1 | 1097.51
303.14 K, w1 = 0.6024 | 1066.59
303.14 K, w1 = 0.6999 | 1076.15
303.14 K, w1 = 0.8995 | 1089.06
303.14 K, w1 = 1 | 1091.06
303.15 K, w1 = 0.2002 | 1018.95
303.15 K, w1 = 0.2997 | 1031.08
303.15 K, w1 = 0.3999 | 1043.56
303.15 K, w1 = 0.8004 | 1084.12
303.15 K, w1 = 0.8534 | 1087.26
303.15 K, w1 = 0.9316 | 1090.01
303.15 K, w1 = 0.9591 | 1090.59
303.16 K, w1 = 0.1007 | 1007.1
303.16 K, w1 = 0.5003 | 1055.09
313.14 K, w1 = 0.6024 | 1060.6
313.14 K, w1 = 0.8004 | 1077.72
313.14 K, w1 = 1 | 1084.49
313.15 K, w1 = 0.1007 | 1003.4
313.15 K, w1 = 0.2002 | 1014.87
313.15 K, w1 = 0.3999 | 1038.5
313.15 K, w1 = 0.6999 | 1069.91
313.15 K, w1 = 0.8534 | 1080.78
313.15 K, w1 = 0.8995 | 1082.55
313.15 K, w1 = 0.9316 | 1083.49
313.15 K, w1 = 0.9591 | 1084.06
313.16 K, w1 = 0.2997 | 1026.54
313.16 K, w1 = 0.5003 | 1049.55
323.14 K, w1 = 0.5003 | 1043.69
323.14 K, w1 = 0.6024 | 1054.36
323.14 K, w1 = 1 | 1077.78
323.15 K, w1 = 0.1007 | 999.014
323.15 K, w1 = 0.2002 | 1010.18
323.15 K, w1 = 0.6999 | 1063.49
323.15 K, w1 = 0.8004 | 1071.18
323.15 K, w1 = 0.8534 | 1074.21
323.15 K, w1 = 0.8995 | 1075.95
323.15 K, w1 = 0.9316 | 1076.86
323.15 K, w1 = 0.9591 | 1077.4
323.16 K, w1 = 0.2997 | 1021.47
323.16 K, w1 = 0.3999 | 1033.03
333.14 K, w1 = 0.8995 | 1069.24
333.14 K, w1 = 1 | 1071
333.15 K, w1 = 0.1007 | 994.007
333.15 K, w1 = 0.2002 | 1004.93
333.15 K, w1 = 0.2997 | 1015.93
333.15 K, w1 = 0.3999 | 1027.17
333.15 K, w1 = 0.5003 | 1037.44
333.15 K, w1 = 0.6024 | 1047.86
333.15 K, w1 = 0.6999 | 1056.8
333.15 K, w1 = 0.8534 | 1067.5
333.15 K, w1 = 0.9316 | 1070.14
333.15 K, w1 = 0.9591 | 1070.66
333.16 K, w1 = 0.8004 | 1064.48
343.14 K, w1 = 0.2997 | 1009.93
343.14 K, w1 = 0.6024 | 1041.1
343.14 K, w1 = 0.6999 | 1049.92
343.14 K, w1 = 0.8995 | 1062.39
343.14 K, w1 = 1 | 1064.14
343.15 K, w1 = 0.1007 | 988.445
343.15 K, w1 = 0.2002 | 999.169
343.15 K, w1 = 0.3999 | 1020.9
343.15 K, w1 = 0.5003 | 1030.89
343.15 K, w1 = 0.8534 | 1060.63
343.15 K, w1 = 0.9316 | 1063.3
343.15 K, w1 = 0.9591 | 1063.82
343.16 K, w1 = 0.8004 | 1057.6
353.14 K, w1 = 0.2997 | 1003.5
353.14 K, w1 = 0.5003 | 1024.01
353.14 K, w1 = 0.6999 | 1042.78
353.14 K, w1 = 0.8995 | 1055.38
353.14 K, w1 = 0.9316 | 1056.33
353.14 K, w1 = 0.9591 | 1056.87
353.15 K, w1 = 0.1007 | 982.774
353.15 K, w1 = 0.2002 | 992.938
353.15 K, w1 = 0.3999 | 1014.25
353.15 K, w1 = 0.6024 | 1034.05
353.15 K, w1 = 0.8004 | 1050.51
353.15 K, w1 = 0.8534 | 1053.58
353.15 K, w1 = 1 | 1056.83

OCCNCCO [diethanolamine] + CCO
Conditions | mass density [kg/m3]
278.14 K, w1 = 0.1 | 827.791
278.14 K, w1 = 1 | 1107.05
278.15 K, w1 = 0.1999 | 854.007
278.15 K, w1 = 0.3 | 881.862
278.15 K, w1 = 0.3999 | 910.002
278.15 K, w1 = 0.5001 | 939.811
278.15 K, w1 = 0.5998 | 970.814
278.15 K, w1 = 0.7002 | 1004.37
278.15 K, w1 = 0.8001 | 1037.46
278.15 K, w1 = 0.8417 | 1051.46
278.15 K, w1 = 0.8997 | 1071.67
283.14 K, w1 = 0.1 | 823.639
283.14 K, w1 = 0.1999 | 849.953
283.14 K, w1 = 0.3 | 877.917
283.14 K, w1 = 1 | 1103.88
283.15 K, w1 = 0.3999 | 906.254
283.15 K, w1 = 0.5001 | 936.053
283.15 K, w1 = 0.5998 | 967.135
283.15 K, w1 = 0.7002 | 1000.78
283.15 K, w1 = 0.8001 | 1034
283.15 K, w1 = 0.8417 | 1048.09
283.15 K, w1 = 0.8997 | 1068.38
293.14 K, w1 = 0.1 | 815.297
293.14 K, w1 = 0.1999 | 841.801
293.14 K, w1 = 0.3 | 869.969
293.14 K, w1 = 0.5998 | 959.776
293.14 K, w1 = 0.8997 | 1061.73
293.15 K, w1 = 0.3999 | 898.495
293.15 K, w1 = 0.5001 | 928.504
293.15 K, w1 = 0.7002 | 993.608
293.15 K, w1 = 0.8001 | 1027.03
293.15 K, w1 = 0.8417 | 1041.24
293.15 K, w1 = 1 | 1097.51
303.14 K, w1 = 0.1 | 806.876
303.14 K, w1 = 0.3 | 861.949
303.14 K, w1 = 1 | 1091.06
303.15 K, w1 = 0.1999 | 833.564
303.15 K, w1 = 0.3999 | 890.674
303.15 K, w1 = 0.5001 | 920.9
303.15 K, w1 = 0.5998 | 952.376
303.15 K, w1 = 0.7002 | 986.404
303.15 K, w1 = 0.8001 | 1020.01
303.15 K, w1 = 0.8417 | 1034.3
303.15 K, w1 = 0.8997 | 1054.97
313.14 K, w1 = 0.1 | 798.332
313.14 K, w1 = 0.3 | 853.824
313.14 K, w1 = 1 | 1084.49
313.15 K, w1 = 0.1999 | 825.235
313.15 K, w1 = 0.3999 | 882.762
313.15 K, w1 = 0.5001 | 913.212
313.15 K, w1 = 0.5998 | 944.908
313.15 K, w1 = 0.7002 | 979.15
313.15 K, w1 = 0.8001 | 1012.95
313.15 K, w1 = 0.8417 | 1027.32
313.15 K, w1 = 0.8997 | 1048.11
323.14 K, w1 = 0.1 | 789.624
323.14 K, w1 = 0.1999 | 816.75
323.14 K, w1 = 0.3 | 845.563
323.14 K, w1 = 0.7002 | 971.82
323.14 K, w1 = 1 | 1077.78
323.15 K, w1 = 0.3999 | 874.726
323.15 K, w1 = 0.5998 | 937.339
323.15 K, w1 = 0.8001 | 1005.75
323.15 K, w1 = 0.8417 | 1020.28
323.15 K, w1 = 0.8997 | 1041.21
323.16 K, w1 = 0.5001 | 905.4
333.14 K, w1 = 0.1 | 780.704
333.14 K, w1 = 0.1999 | 808.075
333.14 K, w1 = 0.3 | 837.129
333.14 K, w1 = 1 | 1071
333.15 K, w1 = 0.3999 | 866.54
333.15 K, w1 = 0.5001 | 897.474
333.15 K, w1 = 0.5998 | 929.643
333.15 K, w1 = 0.7002 | 964.37
333.15 K, w1 = 0.8001 | 998.264
333.15 K, w1 = 0.8417 | 1013.15
333.15 K, w1 = 0.8997 | 1034.23
343.14 K, w1 = 0.1 | 771.521
343.14 K, w1 = 0.1999 | 799.163
343.14 K, w1 = 0.3 | 828.477
343.14 K, w1 = 0.5001 | 889.372
343.14 K, w1 = 0.8997 | 1027.15
343.14 K, w1 = 1 | 1064.14
343.15 K, w1 = 0.3999 | 858.164
343.15 K, w1 = 0.5998 | 921.798
343.15 K, w1 = 0.7002 | 956.784
343.15 K, w1 = 0.8001 | 990.826
343.15 K, w1 = 0.8417 | 1005.84
348.14 K, w1 = 0.1 | 766.805
348.14 K, w1 = 0.1999 | 794.6
348.14 K, w1 = 0.3 | 824.049
348.14 K, w1 = 0.5998 | 917.813
348.14 K, w1 = 1 | 1060.68
348.15 K, w1 = 0.3999 | 853.893
348.15 K, w1 = 0.5001 | 885.244
348.15 K, w1 = 0.7002 | 952.934
348.15 K, w1 = 0.8001 | 987.083
348.15 K, w1 = 0.8417 | 1001.85
348.15 K, w1 = 0.8997 | 1023.57
